Our source for the GI50 and TGI values is PubChem BioAssay (NCI).

Molecules are shown by their SMILES.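 Cells were grown in 96-well plates and exposed to each compound for 48 hours at five concentrations; endpoints were interpolated linearly between bracketing concentrations, or set to the highest concentration if not reached. GI50: concentration for 50% inhibition of growth. TGI: total growth inhibition.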

Test systems include HCT-116 colon; DU-145 prostate; CAKI-1 renal; T-47D breast; OVCAR-8 ovarian; ACHN renal; SK-MEL-5 melanoma; LOX IMVI melanoma; UACC-257 melanoma; IGROV1 ovarian.
Common to all, as to test: NCI tumour cell line growth inhibition, 48 h

For the compound `O=C(Nc1ccccc1Cl)c1ccc(NC2=C(Cl)C(=O)N(Cc3ccccc3)C2=O)cc1`, the GI50 is 21.4 µM with HCT-116 colon; above 100 µM with DU-145 prostate; 43.5 µM in the experiment on CAKI-1 renal; 62.4 µM in the experiment on T-47D breast; 18.7 µM in the experiment on OVCAR-8 ovarian; 37.6 µM in the experiment on ACHN renal. For the same compound, the GI50 with SK-MEL-5 melanoma was 32.7 µM; in the experiment on LOX IMVI melanoma, 17.9 µM; with UACC-257 melanoma, 38.8 µM; in the experiment with IGROV1 ovarian, 46.4 µM. The TGI is 47.5 µM with HCT-116 colon; above 100 µM with DU-145 prostate; above 100 µM with CAKI-1 renal; above 100 µM in the experiment on T-47D breast; 36.9 µM in the experiment on OVCAR-8 ovarian; above 100 µM in the experiment on ACHN renal. The TGI with SK-MEL-5 melanoma was above 100 µM; in the experiment with LOX IMVI melanoma, 32.6 µM; with UACC-257 melanoma, above 100 µM; in the experiment on IGROV1 ovarian, above 100 µM.

Regarding `Nc1nc(Cl)nc2c1ncn2C1O[C@H](CO)[C@@H](O)[C@@H]1F` (stereo partly specified), the GI50 in the experiment with HCT-116 colon was 0.13 µM; in the experiment with DU-145 prostate it was 0.332 µM; in the experiment with CAKI-1 renal, 0.326 µM; with T-47D breast it was 6.94 µM; in the experiment on OVCAR-8 ovarian, 0.0423 µM; with ACHN renal, 0.33 µM. In addition, the GI50 is 0.34 µM in the experiment on SK-MEL-5 melanoma, 0.468 µM in the experiment with LOX IMVI melanoma and above 73.5 µM in the experiment on IGROV1 ovarian. For the same compound, the TGI with HCT-116 colon is above 100 µM; in the experiment with DU-145 prostate, above 32.4 µM; with T-47D breast, above 100 µM; with OVCAR-8 ovarian it was above 100 µM; with SK-MEL-5 melanoma it was above 100 µM; in the experiment on LOX IMVI melanoma, above 100 µM. In addition, the TGI with UACC-257 melanoma and in the experiment with IGROV1 ovarian was above 100 µM each time.

For `CC(O)CN(CCN(CC(C)O)CC(C)O)CC(C)O.O=[N+]([O-])O.[Cu+2]` (stereo unspecified), the GI50 in the experiment on HCT-116 colon, with DU-145 prostate, with CAKI-1 renal, in the experiment with T-47D breast, with OVCAR-8 ovarian and in the experiment on ACHN renal was above 100 µM each time. For the same compound, the GI50 in the experiment with SK-MEL-5 melanoma is 24.3 µM; in the experiment on LOX IMVI melanoma it was above 100 µM; in the experiment with UACC-257 melanoma, above 100 µM; in the experiment on IGROV1 ovarian, above 100 µM. Further, the TGI in the experiment with HCT-116 colon, with DU-145 prostate, in the experiment on CAKI-1 renal, in the experiment with T-47D breast, in the experiment with OVCAR-8 ovarian and with ACHN renal was above 100 µM in each case. The TGI was 58.2 µM in the experiment with SK-MEL-5 melanoma, above 100 µM in the experiment on LOX IMVI melanoma, above 100 µM with UACC-257 melanoma and above 100 µM with IGROV1 ovarian.

Consider `O=Nc1c(-c2cccc([N+](=O)[O-])c2)nc2ncccn12`, for which the GI50 in the experiment with HCT-116 colon is 3.03 µM; with DU-145 prostate, 4.24 µM; with CAKI-1 renal, 10.4 µM; in the experiment on T-47D breast it was 6.29 µM; with OVCAR-8 ovarian, 8.9 µM; with ACHN renal, 8.73 µM. In addition, the GI50 in the experiment on SK-MEL-5 melanoma was 15.2 µM; with LOX IMVI melanoma, 11.6 µM; in the experiment with UACC-257 melanoma, 12.3 µM; in the experiment with IGROV1 ovarian, 10.3 µM. The TGI with HCT-116 colon stood at 13.3 µM; in the experiment on DU-145 prostate, 16.8 µM; in the experiment with CAKI-1 renal it was 22.6 µM; in the experiment on T-47D breast it was 39.1 µM; with OVCAR-8 ovarian it was 43.8 µM; in the experiment with ACHN renal, 23.2 µM. Moreover, the TGI in the experiment on SK-MEL-5 melanoma was found to be 32.2 µM; in the experiment on LOX IMVI melanoma, 27 µM; in the experiment with UACC-257 melanoma it was 26.4 µM; with IGROV1 ovarian, 23.4 µM.

`COC(=O)c1oc2c(C(=O)/C=C/c3ccc(OC)cc3)c(OCCCN3CCCCC3)ccc2c1C`: the GI50 is 1.24 µM with HCT-116 colon; 1.18 µM with DU-145 prostate; 2.09 µM in the experiment with CAKI-1 renal; 1.42 µM in the experiment with T-47D breast; 1.67 µM with OVCAR-8 ovarian; 1.03 µM in the experiment with ACHN renal. Besides, the GI50 with SK-MEL-5 melanoma was 1.72 µM; in the experiment on LOX IMVI melanoma it was 1.45 µM; with UACC-257 melanoma, 1.32 µM; with IGROV1 ovarian, 0.782 µM. In addition, the TGI was 3.02 µM with HCT-116 colon; 2.57 µM in the experiment on DU-145 prostate; 4.96 µM in the experiment with CAKI-1 renal; 4.89 µM with T-47D breast; 4.23 µM in the experiment on OVCAR-8 ovarian; 2.54 µM with ACHN renal. Moreover, the TGI amounted to 3.17 µM with SK-MEL-5 melanoma, 2.82 µM with LOX IMVI melanoma, 2.88 µM in the experiment with UACC-257 melanoma and 4.43 µM in the experiment with IGROV1 ovarian.

`C[n+]1c2ccccc2c(NC2CCNCC2)c2[nH]c3ccccc3c21`: the GI50 with HCT-116 colon was 0.812 µM; with DU-145 prostate, 0.2 µM; in the experiment with T-47D breast, 0.217 µM; with OVCAR-8 ovarian, 1.42 µM; with ACHN renal it was 4.68 µM; in the experiment with SK-MEL-5 melanoma, 0.488 µM. In addition, the GI50 in the experiment on LOX IMVI melanoma is 1.68 µM; in the experiment on UACC-257 melanoma, 5.41 µM; in the experiment on IGROV1 ovarian, 0.363 µM. The TGI with HCT-116 colon was 4.53 µM; with DU-145 prostate, 4.32 µM; with CAKI-1 renal, 7.09 µM; with T-47D breast, 2.04 µM; in the experiment on OVCAR-8 ovarian, 12.8 µM; in the experiment on ACHN renal, 32.1 µM. The TGI in the experiment on SK-MEL-5 melanoma is 2.32 µM; with LOX IMVI melanoma it was 5.52 µM; with UACC-257 melanoma, 23.7 µM; in the experiment with IGROV1 ovarian, 5.05 µM.

As to `CO/N=C1/c2cc(OC)ccc2-c2c(NOC)nc3ccccc3c21`, the GI50 in the experiment with HCT-116 colon was 22.6 µM; with DU-145 prostate it was 29.2 µM; in the experiment with CAKI-1 renal, above 100 µM; in the experiment with T-47D breast, 41.2 µM; in the experiment with OVCAR-8 ovarian, 10.3 µM; in the experiment on ACHN renal it was 14.3 µM. Moreover, the GI50 in the experiment with SK-MEL-5 melanoma is 13.9 µM; with LOX IMVI melanoma, 26.7 µM; in the experiment with UACC-257 melanoma it was 28.2 µM; in the experiment with IGROV1 ovarian it was 18 µM. For the same compound, the TGI in the experiment on HCT-116 colon is 49.2 µM; in the experiment with DU-145 prostate it was above 100 µM; in the experiment with CAKI-1 renal it was above 100 µM; in the experiment with T-47D breast, above 100 µM; in the experiment on OVCAR-8 ovarian, 37 µM; in the experiment on ACHN renal it was 31.3 µM. Also, the TGI in the experiment with SK-MEL-5 melanoma was 36 µM; in the experiment with LOX IMVI melanoma, above 100 µM; in the experiment with UACC-257 melanoma it was above 100 µM; in the experiment on IGROV1 ovarian, 44.2 µM.

For the compound `O=C1c2cccnc2-c2nc(-c3ccc([N+](=O)[O-])cc3)cc3c2c1nc1ccccc13`, the GI50 in the experiment on HCT-116 colon was 2.56 µM; in the experiment with DU-145 prostate, 2.21 µM; in the experiment on CAKI-1 renal it was 13.8 µM; with T-47D breast, 10.6 µM; in the experiment on OVCAR-8 ovarian, 1.5 µM; with ACHN renal, 5.03 µM. The GI50 in the experiment with SK-MEL-5 melanoma was 0.825 µM; in the experiment with LOX IMVI melanoma, 2.28 µM; in the experiment with UACC-257 melanoma, 2.21 µM; in the experiment on IGROV1 ovarian, 7.09 µM. In addition, the TGI is above 26.1 µM in the experiment on HCT-116 colon; 4.88 µM in the experiment with DU-145 prostate; above 100 µM in the experiment on CAKI-1 renal; 54.9 µM in the experiment with T-47D breast; 6.76 µM in the experiment with OVCAR-8 ovarian; 30 µM in the experiment on ACHN renal. For the same compound, the TGI with SK-MEL-5 melanoma was 2.45 µM; in the experiment on LOX IMVI melanoma, above 100 µM; with UACC-257 melanoma, 7.32 µM; in the experiment on IGROV1 ovarian it was 26 µM.

On to `COc1ccc(Cc2ccccc2C(=O)O)c2ccccc12`, for which the TGI is 47.3 µM in the experiment with HCT-116 colon; above 100 µM with DU-145 prostate; above 100 µM with CAKI-1 renal; above 100 µM with T-47D breast; above 100 µM in the experiment with OVCAR-8 ovarian; above 100 µM in the experiment on ACHN renal. Besides, the TGI with SK-MEL-5 melanoma is 32.9 µM; with LOX IMVI melanoma it was 54.4 µM; in the experiment with UACC-257 melanoma, 48.3 µM; in the experiment on IGROV1 ovarian, 65.1 µM.

Consider `COc1ccc(/C=C(/C(=O)N2CCNCC2)c2cc(OC)c(OC)c(OC)c2)cc1O`, for which the GI50 with HCT-116 colon was 3.45 µM; with DU-145 prostate it was 4.1 µM; in the experiment with CAKI-1 renal, above 100 µM; with T-47D breast, 6.71 µM; in the experiment on OVCAR-8 ovarian, 5.64 µM; with ACHN renal, 49.5 µM. Moreover, the GI50 is 4.71 µM in the experiment on SK-MEL-5 melanoma, 5.21 µM with LOX IMVI melanoma, 33.7 µM in the experiment on UACC-257 melanoma and 6.73 µM in the experiment on IGROV1 ovarian. The TGI in the experiment with HCT-116 colon, in the experiment on DU-145 prostate, in the experiment on CAKI-1 renal, with T-47D breast, in the experiment with OVCAR-8 ovarian and with ACHN renal was above 100 µM each time. The TGI with SK-MEL-5 melanoma is 56.4 µM; in the experiment on LOX IMVI melanoma, above 100 µM; in the experiment with UACC-257 melanoma it was above 100 µM; with IGROV1 ovarian, above 100 µM.

As to `CC1=C(C(=O)Nc2ccc(F)c(Cl)c2)C(c2cccc(Cl)c2)NC(=O)N1` (stereo unspecified), the GI50 in the experiment on HCT-116 colon is 14.7 µM; in the experiment on DU-145 prostate, 20.6 µM; with CAKI-1 renal it was 27.3 µM; with T-47D breast, 15.4 µM; with OVCAR-8 ovarian, 17.5 µM; in the experiment with ACHN renal, 18.3 µM. Further, the GI50 is 13.6 µM in the experiment with SK-MEL-5 melanoma, 16.9 µM with LOX IMVI melanoma, 21.4 µM in the experiment on UACC-257 melanoma and 12.4 µM with IGROV1 ovarian. Further, the TGI is 27.9 µM with HCT-116 colon; 55.8 µM in the experiment with DU-145 prostate; above 100 µM in the experiment on CAKI-1 renal; 53.1 µM in the experiment on T-47D breast; 39.7 µM in the experiment with OVCAR-8 ovarian; 46.4 µM in the experiment on ACHN renal. Moreover, the TGI in the experiment with SK-MEL-5 melanoma was determined as 26.9 µM; in the experiment with LOX IMVI melanoma, 31.6 µM; in the experiment with UACC-257 melanoma, 56.2 µM; in the experiment on IGROV1 ovarian, 31.3 µM.
